Assay [1] deals with T1, human GHS receptor (Homo sapiens, UniProt Q92847). Description: Ghrelin IP1 agonist assay (IP1 HTRF). The format is cell-based. Details: expressed in transfected cells; host or cells: HEK293s. The note with it: for Emax: 2 h, agonist effect as % maximal effect of GHRP-6 (5 μM), read-out: h IP1 ag %; for EC50: HEK293s cells stably expressing human GHS receptor, 2 hours at 37° C., read-out: h IP1 ag EC50. In a few lines:
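Cells: HEK293s stably expressing human GHS receptor, in stimulation buffer containing 0.02% fatty acid free BSA.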
A general note: TR-FRET usually uses a lanthanide donor and a delayed reading to cut background.

The target of assay [2] is T1, human GHS receptor. Kind of assay: h bind IC50 (binding assay, Table 1). The note with it: human receptor; Table 1.

T1 sequence (Q92847 whole entry): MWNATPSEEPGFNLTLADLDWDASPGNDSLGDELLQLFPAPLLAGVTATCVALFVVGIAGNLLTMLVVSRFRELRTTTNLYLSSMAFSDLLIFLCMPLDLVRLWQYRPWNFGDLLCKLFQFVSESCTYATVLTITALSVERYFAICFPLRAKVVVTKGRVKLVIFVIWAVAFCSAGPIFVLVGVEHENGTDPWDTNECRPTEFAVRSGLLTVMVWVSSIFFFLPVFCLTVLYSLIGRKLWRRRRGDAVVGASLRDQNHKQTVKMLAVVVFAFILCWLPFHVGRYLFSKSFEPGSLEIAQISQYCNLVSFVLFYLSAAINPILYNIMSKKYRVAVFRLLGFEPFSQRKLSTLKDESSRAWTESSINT

A word on the EC50: it is the concentration at which the effect is half-maximal. A word on the IC50: it is the concentration that inhibits the measured activity by half. For `CN(C)C1CC(S(=O)(=O)c2ccc3nc(NC(=O)NC(=O)c4ccccc4Cl)sc3c2)C1` (stereo not drawn) [Example 216, 2-Chloro-N-[[6-(3-dimethylaminocyclobutyl)sulfonylbenzothiazol-2-yl]carbamoyl]benzamide], on human GHS receptor [1], the Emax was 64.6% and the EC50 was 54 nM. On human GHS receptor [2], this molecule showed an IC50 of 36.8 nM.

Take `CS(=O)(=O)c1ccc2nc(NC(=O)NC(=O)c3ccccc3F)sc2c1` [Example 108, 2-Fluoro-N-[(6-methylsulfonylbenzothiazol-2-yl)carbamoyl]benzamide]: at human GHS receptor [1], the Emax turned out to be 8.69% and the 50% effective concentration (EC50) was determined as 24300 nM. The same molecule showed an IC50 at human GHS receptor [2] of 1640 nM.

Regarding `CCOc1ccc(Cl)c(C(=O)NC(=O)Nc2nc3ccc(S(C)(=O)=O)cc3s2)c1` [Example 53, 2-Chloro-5-ethoxy-N-(6-(methylsulfonyl)benzothiazol-2-ylcarbamoyl)benzamide], on human GHS receptor [1], the Emax stood at 0% and the EC50 is not below 25000 nM. Further, on human GHS receptor [2], the IC50 stood at 10 nM.

`O=C(NC(=O)c1ccccc1Cl)Nc1nc2ccc(S(=O)(=O)CCCN3CCNCC3)cc2s1` [Example 206, 2-Chloro-N-[[6-(3-piperazin-1-ylpropylsulfonyl)benzothiazol-2-yl]carbamoyl]benzamide]: on human GHS receptor [1], the Emax came out at 69% and the EC50 stood at 9.58 nM. On human GHS receptor [2], the IC50 amounted to 14.4 nM.

Consider `O=C(NC(=O)c1cc(-n2cccc2)ccc1Cl)Nc1nc2ccc(S(=O)(=O)CCN3CCNCC3)cc2s1` [Example 79, 2-Chloro-N-[[6-(2-piperazin-1-ylethylsulfonyl)benzothiazol-2-yl]carbamoyl]-5-pyrrol-1-yl-benzamide], for which, at human GHS receptor [1], the Emax was 1.95% and the EC50 is not below 25000 nM. In addition, at human GHS receptor [2], the IC50 stood at 0.6 nM.

As to `O=C(NC(=O)c1ccccc1Cl)Nc1nc2ccc(S(=O)(=O)C3CCN(CC4CC4)CC3)cc2s1` [Example 182, 2-Chloro-N-[[6-[[1-(cyclopropylmethyl)-4-piperidyl]sulfonyl]benzothiazol-2-yl]carbamoyl]benzamide], on human GHS receptor [1], the Emax came out at 39.6% and the EC50 amounted to 25.1 nM. For the same molecule, the IC50 on human GHS receptor [2] turned out to be 8.9 nM.

On to `CS(=O)(=O)c1ccc2nc(NC(=O)NC(=O)c3ccccc3I)sc2c1` [Example 118, 2-Iodo-N-[(6-methylsulfonylbenzothiazol-2-yl)carbamoyl]benzamide], for which, at human GHS receptor [1], the Emax is 9.59% and the EC50 worked out at 114 nM. Further, the IC50 at human GHS receptor [2] is 464 nM.

For the molecule `O=C(NC(=O)c1ccccc1Cl)Nc1nc2ccc(S(=O)(=O)C[C@H]3CCCN3)cc2s1` [Example 165, 2-Chloro-N-[[6-[[(2R)-pyrrolidin-2-yl]methylsulfonyl]benzothiazol-2-yl]carbamoyl]benzamide], on human GHS receptor [1], the Emax stood at 49.4% and the half-maximal effective concentration (EC50) stood at 67.1 nM. For the same molecule, on human GHS receptor [2], the IC50 is 127 nM.

With `Cc1cc(CS(=O)(=O)c2ccc3nc(NC(=O)NC(=O)c4ccccc4Cl)sc3c2)no1` [Example 188, 2-Chloro-N-[[6-[(5-methyl-1,2-oxazol-3-yl)methylsulfonyl]benzothiazol-2-yl]carbamoyl]benzamide], at human GHS receptor [1], the Emax turned out to be 16.4% and the EC50 was determined as 52.1 nM. Further, the IC50 at human GHS receptor [2] came to 53.8 nM.

On to `CN(C)CCOc1ccc(Cl)c(C(=O)NC(=O)Nc2nc3ccc(S(C)(=O)=O)cc3s2)c1` [Example 63, 2-Chloro-5-(2-(dimethylamino)ethoxy)-N-(6-(methylsulfonyl)benzothiazol-2-ylcarbamoyl)benzamide], for which, at human GHS receptor [1], the Emax turned out to be 31.8% and the EC50 amounted to 61.4 nM. At human GHS receptor [2], this molecule showed an IC50 of 2770 nM.

Turning to `CS(=O)(=O)c1ccc2nc(NC(=O)NC(=O)c3ccccc3C(F)(F)F)sc2c1` [Example 170, N-[(6-Methylsulfonylbenzothiazol-2-yl)carbamoyl]-2-(trifluoromethyl)benzamide], on human GHS receptor [1], the Emax is 9.73% and the EC50 stood at 75.7 nM. The IC50 on human GHS receptor [2] turned out to be 831 nM.

As for `CS(=O)(=O)c1ccc2nc(NC(=O)NC(=O)c3ccc([N+](=O)[O-])cc3Cl)sc2c1` [Example 180, 2-Chloro-N-[(6-methylsulfonylbenzothiazol-2-yl)carbamoyl]-4-nitro-benzamide], on human GHS receptor [1], the Emax turned out to be 5.93% and the EC50 came to 67.3 nM. This molecule also came in with an IC50 on human GHS receptor [2] of 127 nM.

As for `O=C(NC(=O)c1ccccc1Cl)Nc1nc2ccc(S(=O)(=O)[C@H]3CCNC3)cc2s1` [Example 171, 2-Chloro-N-[[6-[(3S)-pyrrolidin-3-yl]sulfonylbenzothiazol-2-yl]carbamoyl]benzamide], on human GHS receptor [1], the Emax turned out to be 44% and the EC50 turned out to be 18.6 nM. For the same molecule, the IC50 on human GHS receptor [2] was 296 nM.

For `CS(=O)(=O)c1ccc2nc(NC(=O)NC(=O)c3ccc(F)cc3Cl)sc2c1` [Example 107, 2-Chloro-4-fluoro-N-[(6-methylsulfonylbenzothiazol-2-yl)carbamoyl]benzamide], on human GHS receptor [1], the Emax was 19.3% and the EC50 is 27.6 nM. Besides, the IC50 at human GHS receptor [2] came out at 306 nM.

For the molecule `O=C(NC(=O)c1cc(-n2cccc2)ccc1Cl)Nc1nc2ccc(S(=O)(=O)[C@@H]3CCNC3)cc2s1` [Example 78, 2-Chloro-N-[[6-[(3R)-pyrrolidin-3-yl]sulfonylbenzothiazol-2-yl]carbamoyl]-5-pyrrol-1-yl-benzamide], on human GHS receptor [1], the Emax was found to be 0.81% and the EC50 worked out at 4220 nM. This molecule also gave an IC50 at human GHS receptor [2] of 0.8 nM.

Turning to `CN1CCN(c2ccc(Cl)c(C(=O)NC(=O)Nc3nc4ccc(S(C)(=O)=O)cc4s3)c2)CC1` [Example 59, 2-Chloro-5-(4-methylpiperazin-1-yl)-N-(6-(methylsulfonyl)benzothiazol-2-ylcarbamoyl)benzamide], at human GHS receptor [1], the Emax was determined as 0.377% and the EC50 was more than 9300 nM. Also, the IC50 on human GHS receptor [2] amounted to 207 nM.

Take `CS(=O)(=O)c1ccc2nc(NC(=O)NC(=O)c3cc(-n4cccc4)ccc3Cl)sc2c1` [Example 66, 2-Chloro-N-[(6-methylsulfonylbenzothiazol-2-yl)carbamoyl]-5-pyrrol-1-yl-benzamide]: at human GHS receptor [1], the Emax is 0% and the EC50 was not below 25000 nM. For the same molecule, at human GHS receptor [2], the IC50 is 23.1 nM.

With `COc1ccc(C(=O)NC(=O)Nc2nc3ccc(S(C)(=O)=O)cc3s2)c(Cl)c1OC` [Example 111, 2-Chloro-3,4-dimethoxy-N-[(6-methylsulfonylbenzothiazol-2-yl)carbamoyl]benzamide], at human GHS receptor [1], the Emax worked out at 14.1% and the EC50 turned out to be 335 nM. This molecule showed an IC50 on human GHS receptor [2] of 1270 nM.

Regarding `O=C(NC(=O)c1cc(-n2cccc2)ccc1Cl)Nc1nc2ccc(S(=O)(=O)CCCN3CCNCC3)cc2s1` [Example 73, 2-Chloro-N-[[6-(3-piperazin-1-ylpropylsulfonyl)benzothiazol-2-yl]carbamoyl]-5-pyrrol-1-yl-benzamide], at human GHS receptor [1], the Emax amounted to 2.25% and the EC50 was not below 25000 nM. Moreover, the IC50 on human GHS receptor [2] worked out at 1.3 nM.

Regarding `CS(=O)(=O)c1ccc2nc(NC(=O)NC(=O)c3cc(OC4CNC4)ccc3Cl)sc2c1` [Example 253, 5-(azetidin-3-yloxy)-2-chloro-N-(6-(methylsulfonyl)benzo[d]thiazol-2-ylcarbamoyl) benzamide], at human GHS receptor [1], the Emax worked out at 5.84% and the EC50 came to 4970 nM. At human GHS receptor [2], this molecule came in with a 50% inhibitory concentration (IC50) of 7600 nM.

For the molecule `CS(=O)(=O)c1ccc2nc(NC(=O)NC(=O)c3cc(-n4ccnn4)ccc3Cl)sc2c1` [Example 47, 2-Chloro-5-[1,2,3]triazol-1-yl-N-(6-(methylsulfonyl)benzothiazol-2-ylcarbamoyl)benzamide], on human GHS receptor [1], the Emax was 0% and the EC50 is not below 25000 nM. This molecule returned an IC50 on human GHS receptor [2] of 81.6 nM.

In the case of `COCCNCCS(=O)(=O)c1ccc2nc(NC(=O)NC(=O)c3cc(-n4cccc4)ccc3Cl)sc2c1` [Example 80, 2-Chloro-N-[[6-[2-(2-methoxyethylamino)ethylsulfonyl]benzothiazol-2-yl]carbamoyl]-5-pyrrol-1-yl-benzamide], at human GHS receptor [1], the Emax worked out at 9.77% and the EC50 was not below 25000 nM. At human GHS receptor [2], this molecule displayed an IC50 of 2.2 nM.

`CN1CCC(S(=O)(=O)c2ccc3nc(NC(=O)NC(=O)c4cc(N5CCOCC5)c(Cl)cc4Cl)sc3c2)CC1` [Example 258, 2,4-dichloro-N-(6-(1-methylpiperidin-4-ylsulfonyl)benzo[d]thiazol-2-ylcarbamoyl)-5-morpholino-benzamide]: at human GHS receptor [1], the Emax was 2.45% and the EC50 was 3340 nM. For the same molecule, the IC50 on human GHS receptor [2] amounted to 10.5 nM.

As to `CS(=O)(=O)c1ccc2nc(NC(=O)NC(=O)c3ccc(Cl)cc3Cl)sc2c1` [Example 179, 2,4-Dichloro-N-[(6-methylsulfonylbenzothiazol-2-yl)carbamoyl]benzamide], at human GHS receptor [1], the Emax came to 61.2% and the EC50 came out at 5.91 nM. The molecule also gave an IC50 on human GHS receptor [2] of 18.3 nM.

On to `CN(C)C1CCN(CCCS(=O)(=O)c2ccc3nc(NC(=O)NC(=O)c4ccccc4Cl)sc3c2)CC1` [Example 201, 2-Chloro-N-[[6-[3-(4-dimethylamino-1-piperidyl)propylsulfonyl]benzothiazol-2-yl]carbamoyl]benzamide], for which, at human GHS receptor [1], the Emax was 29.7% and the EC50 came out at 4.54 nM. The molecule also returned an IC50 on human GHS receptor [2] of 0.9 nM.

For `CN(C)CCCS(=O)(=O)c1ccc2nc(NC(=O)NC(=O)c3ccccc3Cl)sc2c1` [Example 202, 2-Chloro-N-[[6-(3-dimethylaminopropylsulfonyl)benzothiazol-2-yl]carbamoyl]benzamide], at human GHS receptor [1], the Emax turned out to be 51.3% and the EC50 was found to be 13.4 nM. This molecule had an IC50 on human GHS receptor [2] of 8.7 nM.

As to `Cc1nc(CS(=O)(=O)c2ccc3nc(NC(=O)NC(=O)c4ccccc4Cl)sc3c2)cs1` [Example 191, 2-Chloro-N-[[6-[(2-methyl-1,3-thiazol-4-yl)methylsulfonyl]benzothiazol-2-yl]carbamoyl]benzamide], on human GHS receptor [1], the Emax was found to be 15.5% and the EC50 came out at 75.2 nM. Also, at human GHS receptor [2], the IC50 came to 128 nM.
